Target: A2.1/K^b on EA2 target cells (UniProt P01901+P04439, D140Y/D185E/D98H/E176V/G131W/I119V/I121R/I166T/N151K/N90K/Q86G/Q94H/R138H/R169H)
Format: binding, chimeric human-mouse

Sequence | binding to A2.1/K^b (percent specific lysis of EA2/K^b targets, FIG. 1), in words | inhibition of binding of the influenza A-derived peptide to A2.1/K^b (FIG. 5), in words
ILKEPVHGV [HIV-1 RT: 476-484, reference compound] | efficiently bound to A2.1/K^b | –
ILLVVVLGV [Peptide H9] | – | highest efficiency
